These results are taken from PMC4747952, “Development of TASP0410457 (TASP457), a novel dihydroquinolinone derivative as a PET radioligand for central histamine H3 receptors” (EJNMMI Research, 2016).

Some results are limits rather than exact numbers.

One assay deals with T1, monkey H3Rs (Macaca mulatta, UniProt Q865E1).
T1 construct: Rat cerebral cortex and monkey frontal cortex were dissected; from tissue; host or cells: monkey frontal cortex membranes
In words: In vitro binding to H3Rs, monkey frontal cortex membranes, [^3H]N-α-methylhistamine. As to conditions: 1 nM [^3H]N-α-methylhistamine, geometric mean, n = 3, read-out: Affinity for H3Rs Monkey, IC50. The procedure:
Rat cerebral cortex and monkey frontal cortex were dissected, homogenized with 50 mM Tris buffer (pH 7.4) containing 5 mM EDTA and Protease Inhibitor Cocktail Tablets (Roche Diagnostics, Indianapolis, IN) and centrifuged at 48,000×g for 15 min at 4 °C. The pellets were then suspended in binding buffer (50 mM Tris containing 5 mM EDTA, pH 7.4) and stored at −80 °C as membrane preparations.
The membrane preparations were thawed and incubated in the binding buffer containing 0.1 % bovine serum albumin, 1 nM [^3H]N-α-methylhistamine (PerkinElmer, Waltham, MA) with various concentrations of a dihydroquinolinone derivative (i.e., test compound) at 25 °C for 1 h. The reaction was terminated by rapid filtration through 96-well GF/C filter plates (PerkinElmer) presoaked with 0.5 % polyethyleneimine (Wako, Osaka, Japan). After washes with ice-cold binding buffer, the plates were dried and filled with Microscint-o (PerkinElmer). The radioactivity retained on the filters was counted using a TopCount NXT (PerkinElmer). Total and nonspecific radioligand binding was determined by reaction without and with 10 μM thioperamide and clobenpropit, respectively. The specific radioligand binding was then calculated by subtracting the nonspecific binding from the total binding. The IC50 value for inhibition of the radioligand binding by the test compound was determined using a nonlinear fit of the concentration-response curve for each test compound using SAS 9.2 (SAS Institute Inc., Cary, NC). Data were expressed as the geometric means of IC50 values from three independent experiments run in duplicate.

A further assay addresses T2, Sigma 1 receptor (Homo sapiens, UniProt Q99720).
T2 construct: The membrane preparations were made from Jurkat cell lines; endogenous in cells; host or cells: Jurkat
In words: Sigma 1 receptor binding, [3H]pentazocine. The note with it: Jurkat cell membranes; 4 nM [3H]pentazocine; read-out: Off-target binding Sigma 1, IC50. Here is the method:
(§1) H) 6.86 [d, J = 8.67 Hz, 2 H]; MS [ESI/APCI Dual) [Positive) m/z; 381(M+H)+ ) .
(§2) Off-target binding of compounds
(§3) The membrane preparations were made from Jurkat cell lines, and were incubated in sigma 1 binding buffer (0.1% bovine serum albumin in 50 mM Tris, pH7.4) containing 4 nM [3H]pentazocine (PerkinElmer), and serial concentrations of the compound at 25°C for 2.5 h. The reaction was terminated by rapid filtration through a 96-well GF/C filter plate presoaked in 0.5% polyethyleneimine.
(§4) The filters were washed with ice-cold 50 mM Tris (pH7.4) three times, dried, and filled with Microscint-o. The radioactivity retained on the filter was counted using a TopCount NXT. Nonspecific binding was determined as the amount of radioactivity under the above-mentioned conditions in the presence of […] of haloperidol. The IC50 values were determined by nonlinear curve-fitting of the concentration-response data for each compound using Origin version 6.1087 (OriginLab Corporation, […]
(§5) Adrenergic 2c receptor binding
Human 2c receptor-expressing membrane preparations were purchased from PerkinElmer. The

A further assay concerns the target T3, Adrenergic α2c receptor (Homo sapiens, UniProt P18825).
T3 construct: purchased PerkinElmer
T3 sequence (P18825 1-462): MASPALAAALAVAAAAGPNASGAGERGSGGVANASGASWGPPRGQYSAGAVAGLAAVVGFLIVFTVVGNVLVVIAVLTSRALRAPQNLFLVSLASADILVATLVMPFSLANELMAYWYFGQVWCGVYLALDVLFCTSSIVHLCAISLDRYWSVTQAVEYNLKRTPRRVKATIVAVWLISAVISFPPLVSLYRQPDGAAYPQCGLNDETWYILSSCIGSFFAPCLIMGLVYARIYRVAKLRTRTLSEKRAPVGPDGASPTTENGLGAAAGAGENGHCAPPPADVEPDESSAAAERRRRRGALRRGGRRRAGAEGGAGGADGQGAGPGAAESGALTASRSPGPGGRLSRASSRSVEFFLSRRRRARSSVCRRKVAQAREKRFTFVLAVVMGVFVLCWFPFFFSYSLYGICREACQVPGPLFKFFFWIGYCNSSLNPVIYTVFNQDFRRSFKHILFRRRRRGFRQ
Put plainly: Adrenergic α2c receptor binding, [3H]MK-912. As to conditions: 0.08 nM [3H]MK-912; read-out: Off-target binding Adrenergic α2c, IC50. The procedure: as §1, §2, §3, §4, §5
Human 2c receptor-expressing membrane preparations were purchased from PerkinElmer. The membranes were incubated in binding buffer (1 mM EDTA and 0.1% bovine serum albumin in 50 mM Tris, pH7.4) containing 0.08 nM [3H]MK-912 (PerkinElmer), and serial concentrations of the compound at 25°C for 1 h. The reaction was terminated by rapid filtration through a 96-well GF/C filter plate presoaked in 0.5% polyethyleneimine. […] The radioactivity retained on the filter was counted using a TopCount NXT. Nonspecific binding was determined as the amount of radioactivity under the conditions mentioned above in the presence of […] of rauwolscine. The IC50 values were determined as for sigma 1 receptor binding. […]
The reaction was terminated by rapid filtration through a 96-well GF/C filter plate presoaked in 0.5% polyethyleneimine. […] The radioactivity retained on the filter was counted using a TopCount NXT. Nonspecific binding was determined as the amount of radioactivity under the above-mentioned conditions in the presence of 1 µM of atropine.

T1 sequence (Q865E1 1-445): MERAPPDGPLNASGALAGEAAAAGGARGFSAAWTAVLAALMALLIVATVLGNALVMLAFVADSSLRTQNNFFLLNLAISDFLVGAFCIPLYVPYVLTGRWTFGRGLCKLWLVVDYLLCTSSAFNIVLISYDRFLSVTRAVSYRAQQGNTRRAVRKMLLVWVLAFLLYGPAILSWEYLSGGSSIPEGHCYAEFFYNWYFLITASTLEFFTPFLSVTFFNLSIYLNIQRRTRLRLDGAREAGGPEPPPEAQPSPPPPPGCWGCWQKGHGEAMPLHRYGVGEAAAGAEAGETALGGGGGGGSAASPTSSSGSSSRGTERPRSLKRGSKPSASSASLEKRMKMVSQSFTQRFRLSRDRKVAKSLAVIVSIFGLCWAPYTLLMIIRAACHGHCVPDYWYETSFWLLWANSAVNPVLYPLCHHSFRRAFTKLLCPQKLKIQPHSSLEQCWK
T2 sequence (Q99720 whole entry): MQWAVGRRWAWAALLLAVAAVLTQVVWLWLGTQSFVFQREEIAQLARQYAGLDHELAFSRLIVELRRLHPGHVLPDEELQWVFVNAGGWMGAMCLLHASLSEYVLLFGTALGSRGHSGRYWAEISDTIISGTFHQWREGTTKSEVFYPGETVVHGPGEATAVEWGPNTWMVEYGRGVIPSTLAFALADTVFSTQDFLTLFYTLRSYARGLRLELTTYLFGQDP

One may read the IC50 as the point on the concentration scale where inhibition reaches its midpoint. As to `COc1ccc(N2C(=O)CCc3cc(OCCCN4CCC[C@H]4C)ccc32)cc1` [TASP0390136, 1-(4-methoxyphenyl)-6-{3-[(2R)-2-methylpyrrolidin-1-yl]propoxy}-3,4-dihydroquinolin-2(1H)-one], the IC50 at monkey H3Rs was 0.00106 µM; on Sigma 1 receptor, 0.167 µM; on Adrenergic α2c receptor it was above 1 µM.

In the case of `COc1ccc(N2C(=O)CCc3cc(OC4CCN(C5CCC5)CC4)ccc32)cn1` [TASP0410457, 6-[(1-Cyclobutylpiperidin-4-yl)oxy]-1-(6-methoxypyridin-3-yl)-3,4-dihydroquinolin-2(1H)-one], the IC50 on monkey H3Rs was 0.0018 µM; on Sigma 1 receptor, 0.379 µM; at Adrenergic α2c receptor, above 1 µM.

On to `COc1ccc(N2C(=O)CCc3cc(OC4CCN(C5CCC5)CC4)ccc32)cc1` [TASP0434988, 6-[(1-cyclobutylpiperidin-4-yl)oxy]-1-(4-methoxyphenyl)-3,4-dihydroquinolin-2(1H)-one], for which the figures for the IC50 at monkey H3Rs, at Sigma 1 receptor and on Adrenergic α2c receptor were 0.000565 µM, 0.257 µM and 0.528 µM, respectively.
